Values of other authors in US20220251295A1 (DYNAMIC BIOLOGICS INC., priority 2019, published 2022).

Assays:
[1] = Phase III clinical trials
[2] = administered with levodopa
[3] = levodopa alone

In the case of `CCOC(=O)[C@@H](N)Cc1ccc(O)c(O)c1` [Etilevodopa], the “efficacy compared with Levodopa” value [1] is listed as “less efficacious than Levodopa”.

For `C[C@@](Cc1ccc(O)c(O)c1)(NN)C(=O)O` [carbidopa], the “reduction of the amount of levodopa required to produce a given response” value [2] is listed as 75%.

For `N[C@@H](Cc1ccc(O)c(O)c1)C(=O)O` [levodopa, (S)-2-amino-3-(3,4-dihydroxyphenyl)propanoic acid], the “Plasma half-life of levodopa” value [3] is given as roughly 50 min.
